Values quoted from earlier work as cited in PMC6262012, “IMB-T130 targets 3-dehydroquinate synthase and inhibits Mycobacterium tuberculosis” (Scientific Reports, 2018).

Test system: M. tuberculosis
Details: drug-resistant strains, compared with RFP and INH; cited from earlier work

SMILES: O=C(Nc1nc(-c2ccccn2)cs1)c1ccc(Cl)s1 [IMB-T130, 5-chloro-N-[4-(pyridin-2-yl)-1,3-thiazol-2-yl] thiophene-2-carboxamide]
- MIC against drug-resistant strains: substantially lower MIC
